Measured values from patent US9018244B2, “Benzopyran compounds, compositions and uses thereof” (Olema Pharmaceuticals, Inc., priority 2011, dated 2015).
“Also recorded” adds a separate entry of the source.

Key:
[1] = tested on: alkaline phosphatase (AP) activity in ECC-1 cells; assay: Alkaline phosphatase (AP) assay in ECC-1 cells, agonist mode (without E2); type: cell-based, human; details: without E2, 3 days
Description: FIG. 2. Alkaline phosphatase (AP) activity in ECC-1 cells correlates with the uterine wet weight of ovariectomized rats, as reported previously in Scafonas, et al. (*; Scafonas et al. “Agonist-like SERM effects on ER alpha-mediated repression of MMPI promoter activity predict in vivo effects on bone and uterus. J Steroid Biochem Mol. Biol. 2008 110(3-5):197-206) and Labrie, et al. (†; Labrie et al. “The combination of a novel selective estrogen receptor modulator with an estrogen protects the mammary gland and uterus in a rodent model: the future of postmenopausal women's health?” Endocrinology. 2003 144(11):4700-6). ECC-1 cells were treated with 500 pM 17β-estradiol (E2) or 1-5 nM anti-estrogens in hormone-depleted medium for 3 days. […] AP activity was measured by incubating a chromogenic AP substrate, p-nitrophenyl phosphate, at 40° C. for 40 minutes followed by measuring the absorbance at 405 nm. […]
FIG. 3. […] ECC-1 cells were treated with 100 nM anti-estrogens and AP activity was measured as described in FIG. 2. […] Note that OP-1038 was statistically different from Aragon Compound 28 (WO2011/156518), EM-343 and Gauthier compound Ia (p≦0.01 (exact p values stated in graph), calculated using Student's t-test).
(§1) Method for performing the alkaline phosphatase (AP) assay. […] Absorbance was read at 405 nm using a plate spectophotometer. […]

[2] = tested on: E2-stimulated AP activity in ECC-1 cells; assay: Inhibition of E2-stimulated AP activity in ECC-1 cells (antagonist mode); type: cell-based, human; details: in the presence of 500 pM E2
Description: FIG. 2. Alkaline phosphatase (AP) activity in ECC-1 cells correlates with the uterine wet weight of ovariectomized rats, as reported previously in Scafonas, et al. (*; Scafonas et al. “Agonist-like SERM effects on ER alpha-mediated repression of MMPI promoter activity predict in vivo effects on bone and uterus. J Steroid Biochem Mol. Biol. 2008 110(3-5):197-206) and Labrie, et al. (†; Labrie et al. “The combination of a novel selective estrogen receptor modulator with an estrogen protects the mammary gland and uterus in a rodent model: the future of postmenopausal women's health?” Endocrinology. 2003 144(11):4700-6). ECC-1 cells were treated with 500 pM 17β-estradiol (E2) or 1-5 nM anti-estrogens in hormone-depleted medium for 3 days. Note that the racemic mixture of acolbifene, EM-343, was used in the in vitro AP assay. AP activity was measured by incubating a chromogenic AP substrate, p-nitrophenyl phosphate, at 40° C. for 40 minutes followed by measuring the absorbance at 405 nm. Results were from a single representative experiment and reported as the mean percent induction relative to E2 from triplicate treatments, with error bars representing SEM.
FIG. 6. […] A) Comparison of inhibition of E2-stimulated AP activity of various benzopyran compounds (right) compared to published reference compounds (left). ECC-1 cells were treated with 100 nM anti-estrogens in the presence of 500 pM E2 and AP activity was measured as described in FIG. 2. Note that OP-1038 was statistically different from EM-343 and Gauthier compound Ia (p<0.0001 (exact p values stated in graph), calculated using Student's t-test). Results were from a single representative experiment and reported as the mean percent induction relative to E2 from triplicate treatments, with error bars representing SEM. […] IC50's were calculated using the least squares fit method. *Aragon Compound 28 was statistically different from equivalent dose of OP-1038 (p≦0.01, calculated using Student's t-test). […]
as §1

[3] = target: T1, estrogen receptor alpha (ERα) (Homo sapiens, UniProt P03372); assay: ERα expression by immunoblot after anti-estrogen treatment; type: cell-based; details: 100 nM anti-estrogen, 22-24 hours, serum-free medium; MCF-7 breast cells and ECC-1 endometrial cells
T1 construct: endogenous in cells
T1 sequence (P03372 1-595): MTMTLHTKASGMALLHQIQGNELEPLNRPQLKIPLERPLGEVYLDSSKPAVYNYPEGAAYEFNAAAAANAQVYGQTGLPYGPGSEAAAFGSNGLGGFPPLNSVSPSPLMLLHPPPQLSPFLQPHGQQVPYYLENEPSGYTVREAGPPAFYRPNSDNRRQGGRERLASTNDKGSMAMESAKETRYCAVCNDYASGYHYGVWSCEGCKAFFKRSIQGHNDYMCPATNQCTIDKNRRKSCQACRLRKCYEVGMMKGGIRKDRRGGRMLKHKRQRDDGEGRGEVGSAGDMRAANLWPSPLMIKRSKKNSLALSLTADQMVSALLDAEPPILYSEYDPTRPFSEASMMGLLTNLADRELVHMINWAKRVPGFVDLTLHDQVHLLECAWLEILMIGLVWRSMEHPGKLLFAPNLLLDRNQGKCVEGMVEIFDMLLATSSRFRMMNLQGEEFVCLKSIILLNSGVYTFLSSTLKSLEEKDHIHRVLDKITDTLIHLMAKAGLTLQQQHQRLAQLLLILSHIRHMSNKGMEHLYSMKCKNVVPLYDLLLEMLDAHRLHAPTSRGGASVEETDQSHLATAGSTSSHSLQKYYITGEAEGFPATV
Procedure: FIG. 12. […] A) ERα levels in breast cells after treatment with OP-1074 compared to treatment with model anti-estrogens. MCF-7 cells were treated with 100 nM anti-estrogen for 24 hours in serum-free medium and protein extracts immunoblotted with an antibody to ERα (D12, Santa Cruz Biotechnology, Santa Cruz, Calif.). Image is from a single representative experiment and number on top denotes the mean percent ERα expression relative to vehicle from quadruplicate treatments. B) OP-1038 induces degradation of ERα in both MCF-7 breast cells and ECC-1 endometrial cells.
ERα expression was detected in MCF-7 cell lysates treated with 100 nM anti-estrogens in serum-free medium for 22-24 hours and immunoblotted with an antibody specific to ERα as described in the legend to, and depicted in FIG. 12.

Row | Compound | Estrogenic activity: AP activity, percent induction relative to E2 [1] | Inhibition of E2-stimulated AP activity [2] | Degradation of ERα [3]
1 | CC1=C(c2ccc(O)cc2)[C@H](c2ccc(OCCN3CC[C@@H](C)C3)cc2)Oc2cc(O)ccc21 [OP-1074, (2S)-3-(4-hydroxyphenyl)-4-methyl-2-(4-{2-[(3R)-3-methylpyrrolidin-1-yl]ethoxy}phenyl)-2H-chromen-7-ol] | essentially no estrogenic activity; also recorded: lack estrogenic activity; also recorded: did not stimulate AP activity | inhibit E2-stimulated AP activity; also recorded: more anti-estrogenic than EM-343 and EM-652; also recorded: inhibited E2-stimulated AP activity in a dose dependent manner | comparable to fulvestrant; also recorded: induce degradation
2 | CC1=C(c2ccc(O)cc2)C(c2ccc(OCCN3CC[C@@H](C)C3)cc2)Oc2cc(O)ccc21 (stereo partly drawn) [OP-1038, 3-(4-hydroxyphenyl)-4-methyl-2-(4-{2-[(3R)-3-methylpyrrolidin-1-yl]ethoxy}phenyl)-2H-chromen-7-ol] | lacks estrogenic activity; also recorded: less estrogenic than Aragon Compound 28 | more potent than Aragon Cpd. 28; also recorded: inhibit E2-stimulated AP activity; also recorded: more anti-estrogenic than EM-343 and EM-652 | comparable to fulvestrant; also recorded: induce degradation
